Where two headings read alike, the source gives them in different places.
Tests used:
[1] = test system: isolated thoracic aortic rings of male Wistar rats; test: Vasodilation activity screening: isolated thoracic aortic rings pre-contracted with norepinephrine hydrochloride; settings: Rattus norvegicus
Procedure: The vasodilation activity screening procedures were carried out according to the standard reported techniques by testing the effects of the synthesized 2-alkoxy-4-aryl-6-(benzofuran-2-yl)-3-pyridinecarbonitriles 4a–x on isolated thoracic aortic rings of male Wistar rats (250–350 g). After light ether anesthesia, the rats were sacrificed by cervical dislocation. The aortae were immediately excised, freed of extraneous tissues and prepared for isometric tension recording. Aorta was cut into (3–5 mm width) rings and each ring was placed in a vertical chamber “10 mL jacketed automatic multi-chamber organ bath system (Model no. ML870B6/C, Panlab, Spain)” filled with Krebs solution composed of (in mM): NaCl, 118.0; KCl, 4.7; NaHCO3, 25.0; CaCl2, 1.8; NaH2PO4, 1.2; MgSO4, 1.2; glucose, 11.0 and oxygenated with carbogen gas (95% O2/5% CO2) at 37 ± 0.5 °C. Each aortic ring was mounted between two stainless steel hooks passed through its lumen. The lower hook was fixed between two plates, while the upper one was attached to a force displacement transducer (Model no. MLT0201, Panlab, Spain) connected to an amplifier (PowerLab, AD Instruments Pty., Ltd. Victoria, Australia), which is connected to a computer. The chart for Windows (v 3.4) software was used to record and elaborate data. Preparations were stabilized under 2 g resting tension during 2 h and then the contracture response to norepinephrine hydrochloride (10^−6 M) was measured before and after exposure to increasing concentrations of the tested synthesized compounds. The tested compounds were dissolved in dimethylsulfoxide (DMSO) as stock solution (10 mL of 0.005 M). […] This experiment was carried out in according to recommendations in the Guide for the Care and Use of Laboratory Animals of the National Institutes of Health (NIH publication No. 85–23, revised 1996) and under regulations of the Animal Care and Use of National Research Centre in Egypt.

[2] = norepinephrine hydrochloride 10^−6 M, three replicates, read-out: Potency (IC50), concentration necessary for 50% reduction of maximal norepinephrine hydrochloride induced contracture
[3] = norepinephrine hydrochloride induced contracture, observed values as used in the QSAR, read-out: Observed IC50

COc1nc(-c2ccccc2)cc(-c2cn(-c3ccccc3)nc2-c2cc3ccccc3o2)c1C#N [Compound 4a, 4-(3-(Benzofuran-2-yl)-1-phenyl-1H-pyrazol-4-yl)-2-methoxy-6-phenylpyridine-3-carbonitrile]
IC50 [1, 2]: 281 µM | IC50 [1, 3]: 281 µM

CCOc1nc(-c2ccccc2)cc(-c2cn(-c3ccccc3)nc2-c2cc3ccccc3o2)c1C#N [Compound 4b, 4-(3-(Benzofuran-2-yl)-1-phenyl-1H-pyrazol-4-yl)-2-ethoxy-6-phenylpyridine-3-carbonitrile]
IC50 [1, 2]: 343 µM | IC50 [1, 3]: 343 µM | melting point: 186 to 188 °C

COc1nc(-c2ccc(Cl)cc2)cc(-c2cn(-c3ccccc3)nc2-c2cc3ccccc3o2)c1C#N [Compound 4c, 4-(3-(Benzofuran-2-yl)-1-phenyl-1H-pyrazol-4-yl)-6-(4-chlorophenyl)-2-methoxypyridine-3-carbonitrile]
IC50 [1, 2]: 295 µM | IC50 [1, 3]: 295 µM

CCOc1nc(-c2ccc(Cl)cc2)cc(-c2cn(-c3ccccc3)nc2-c2cc3ccccc3o2)c1C#N [Compound 4d, 4-(3-(Benzofuran-2-yl)-1-phenyl-1H-pyrazol-4-yl)-6-(4-chlorophenyl)-2-ethoxypyridine-3-carbonitrile]
IC50 [1, 2]: 397 µM | IC50 [1, 3]: 397 µM | melting point: 199 to 201 °C

COc1nc(-c2ccc(Br)cc2)cc(-c2cn(-c3ccccc3)nc2-c2cc3ccccc3o2)c1C#N [Compound 4e, 4-(3-(Benzofuran-2-yl)-1-phenyl-1H-pyrazol-4-yl)-6-(4-bromophenyl)-2-methoxypyridine-3-carbonitrile]
IC50 [1, 2]: 253 µM | IC50 [1, 3]: 253 µM

CCOc1nc(-c2ccc(Br)cc2)cc(-c2cn(-c3ccccc3)nc2-c2cc3ccccc3o2)c1C#N [Compound 4f, 4-(3-(Benzofuran-2-yl)-1-phenyl-1H-pyrazol-4-yl)-6-(4-bromophenyl)-2-ethoxypyridine-3-carbonitrile]
IC50 [1, 2]: 267 µM | IC50 [1, 3]: 267 µM

COc1nc(-c2ccc(F)cc2)cc(-c2cn(-c3ccccc3)nc2-c2cc3ccccc3o2)c1C#N [Compound 4g, 4-(3-(benzofuran-2-yl)-1-phenyl-1H-pyrazol-4-yl)-6-(4-fluorophenyl)-2-methoxypyridine-3-carbonitrile]
IC50 [1, 2]: 275 µM | IC50 [1, 3]: 275 µM

CCOc1nc(-c2ccc(F)cc2)cc(-c2cn(-c3ccccc3)nc2-c2cc3ccccc3o2)c1C#N [Compound 4h, 4-(3-(Benzofuran-2-yl)-1-phenyl-1H-pyrazol-4-yl)-2-ethoxy-6-(4-fluorophenyl)pyridine-3-carbonitrile]
IC50 [1, 2]: 330 µM | IC50 [1, 3]: 330 µM | melting point: 204 to 206 °C

COc1nc(-c2ccc(C)cc2)cc(-c2cn(-c3ccccc3)nc2-c2cc3ccccc3o2)c1C#N [Compound 4i, 4-(3-(Benzofuran-2-yl)-1-phenyl-1H-pyrazol-4-yl)-2-methoxy-6-p-tolylpyridine-3-carbonitrile]
IC50 [1, 2]: 330 µM | IC50 [1, 3]: 330 µM | melting point: 258 to 260 °C

CCOc1nc(-c2ccc(C)cc2)cc(-c2cn(-c3ccccc3)nc2-c2cc3ccccc3o2)c1C#N [Compound 4j, 4-(3-(Benzofuran-2-yl)-1-phenyl-1H-pyrazol-4-yl)-2-ethoxy-6-p-tolylpyridine-3-carbonitrile]
IC50 [1, 2]: 452 µM | IC50 [1, 3]: 452 µM | melting point: 202 to 204 °C

COc1ccc(-c2cc(-c3cn(-c4ccccc4)nc3-c3cc4ccccc4o3)c(C#N)c(OC)n2)cc1 [Compound 4k, 4-(3-(Benzofuran-2-yl)-1-phenyl-1H-pyrazol-4-yl)-2-methoxy-6-(4-methoxyphenyl)pyridine-3-carbonitrile]
IC50 [1, 2]: 428 µM | IC50 [1, 3]: 322 µM | melting point: 256 to 258 °C

CCOc1nc(-c2ccc(OC)cc2)cc(-c2cn(-c3ccccc3)nc2-c2cc3ccccc3o2)c1C#N [Compound 4l, 4-(3-(Benzofuran-2-yl)-1-phenyl-1H-pyrazol-4-yl)-2-ethoxy-6-(4-methoxyphenyl)pyridine-3-carbonitrile]
IC50 [1, 2]: 291 µM | IC50 [1, 3]: 291 µM

COc1nc(-c2ccc3c(c2)CCCC3)cc(-c2cn(-c3ccccc3)nc2-c2cc3ccccc3o2)c1C#N [Compound 4m, 4-(3-(Benzofuran-2-yl)-1-phenyl-1H-pyrazol-4-yl)-6-(1,2,3,4-tetrahydronaphthalen-6-yl)-2-methoxypyridine-3-carbonitrile]
IC50 [1, 2]: 286 µM | IC50 [1, 3]: 286 µM

CCOc1nc(-c2ccc3c(c2)CCCC3)cc(-c2cn(-c3ccccc3)nc2-c2cc3ccccc3o2)c1C#N [Compound 4n, 4-(3-(Benzofuran-2-yl)-1-phenyl-1H-pyrazol-4-yl)-2-ethoxy-6-(1,2,3,4-tetrahydronaphthalen-6-yl)pyridine-3-carbonitrile]
IC50 [1, 2]: 337 µM | IC50 [1, 3]: 337 µM | melting point: 213 to 215 °C

COc1nc(-c2ccc[nH]2)cc(-c2cn(-c3ccccc3)nc2-c2cc3ccccc3o2)c1C#N [Compound 4o, 4-(3-(Benzofuran-2-yl)-1-phenyl-1H-pyrazol-4-yl)-2-methoxy-6-(1H-pyrrol-2-yl)pyridine-3-carbonitrile]
IC50 [1, 2]: 356 µM | melting point: 187 to 189 °C

CCOc1nc(-c2ccc[nH]2)cc(-c2cn(-c3ccccc3)nc2-c2cc3ccccc3o2)c1C#N [Compound 4p, 4-(3-(Benzofuran-2-yl)-1-phenyl-1H-pyrazol-4-yl)-2-ethoxy-6-(1H-pyrrol-2-yl)pyridine-3-carbonitrile]
IC50 [1, 2]: 400 µM | IC50 [1, 3]: 298 µM | melting point: 208 to 210 °C

COc1nc(-c2ccco2)cc(-c2cn(-c3ccccc3)nc2-c2cc3ccccc3o2)c1C#N [Compound 4q, 4-(3-(Benzofuran-2-yl)-1-phenyl-1H-pyrazol-4-yl)-6-(furan-2-yl)-2-methoxypyridine-3-carbonitrile]
IC50 [1, 2]: 321 µM | IC50 [1, 3]: 321 µM | melting point: 246 to 248 °C

CCOc1nc(-c2ccco2)cc(-c2cn(-c3ccccc3)nc2-c2cc3ccccc3o2)c1C#N [Compound 4r, 4-(3-(Benzofuran-2-yl)-1-phenyl-1H-pyrazol-4-yl)-2-ethoxy-6-(furan-2-yl)pyridine-3-carbonitrile]
IC50 [1, 2]: 254 µM | IC50 [1, 3]: 254 µM

COc1nc(-c2cccs2)cc(-c2cn(-c3ccccc3)nc2-c2cc3ccccc3o2)c1C#N [Compound 4s, 4-(3-(Benzofuran-2-yl)-1-phenyl-1H-pyrazol-4-yl)-2-methoxy-6-(thiophen-2-yl)pyridine-3-carbonitrile]
IC50 [1, 2]: 268 µM

CCOc1nc(-c2cccs2)cc(-c2cn(-c3ccccc3)nc2-c2cc3ccccc3o2)c1C#N [Compound 4t, 4-(3-(Benzofuran-2-yl)-1-phenyl-1H-pyrazol-4-yl)-2-ethoxy-6-(thiophen-2-yl)pyridine-3-carbonitrile]
IC50 [1, 2]: 298 µM | IC50 [1, 3]: 400 µM

COc1nc(-c2ccccn2)cc(-c2cn(-c3ccccc3)nc2-c2cc3ccccc3o2)c1C#N [Compound 4u, 4-(3-(Benzofuran-2-yl)-1-phenyl-1H-pyrazol-4-yl)-2-methoxy-6-(pyridin-2-yl)pyridine-3-carbonitrile]
IC50 [1, 2]: 333 µM | IC50 [1, 3]: 333 µM | melting point: 275 to 277 °C

CCOc1nc(-c2ccccn2)cc(-c2cn(-c3ccccc3)nc2-c2cc3ccccc3o2)c1C#N [Compound 4v, 4-(3-(Benzofuran-2-yl)-1-phenyl-1H-pyrazol-4-yl)-2-ethoxy-6-(pyridin-2-yl)pyridine-3-carbonitrile]
IC50 [1, 2]: 370 µM | IC50 [1, 3]: 370 µM | melting point: 204 to 206 °C

COc1nc(-c2nc3ccccc3n2C)cc(-c2cn(-c3ccccc3)nc2-c2cc3ccccc3o2)c1C#N [Compound 4w, 4-(3-(Benzofuran-2-yl)-1-phenyl-1H-pyrazol-4-yl)-2-methoxy-6-(1-methyl-1H-benzo[d]imidazole-2-yl)pyridine-3-carbonitrile]
IC50 [1, 2]: 223 µM | IC50 [1, 3]: 223 µM

CCOc1nc(-c2nc3ccccc3n2C)cc(-c2cn(-c3ccccc3)nc2-c2cc3ccccc3o2)c1C#N [Compound 4x, 4-(3-(Benzofuran-2-yl)-1-phenyl-1H-pyrazol-4-yl)-2-ethoxy-6-(1-methyl-1H-benzo[d]-imidazol-2-yl)pyridine-3-carbonitrile]
IC50 [1, 2]: 299 µM | IC50 [1, 3]: 299 µM

From PMC6150240, “Synthesis and 2D-QSAR Study of Active Benzofuran-Based Vasodilators” (Molecules : A Journal of Synthetic Chemistry and Natural …, 2017)
